Assay results as given in ChEMBL document CHEMBL3885881, “DrugMatrix”.
Values joined by “and” are separate entries in the source; they are usually repeats but may differ in a detail not shown here. Equal values may be shown once.

Organism: Rattus norvegicus
Test: DrugMatrix - Regimen: Daily Repeat
Format: toxicity, organism-based, Sprague-Dawley
Set-up: regimen Daily Repeat, gender Male, age 6-8 weeks
Settings: in vivo, po, route oral GAVAGE, vehicle 100 % WATER; for ABSOLUTE SEGMENTED NEUTROPHIL / BASOPHIL / EOSINOPHIL / ERYTHROCYTE COUNT / HEMATOCRIT / HEMOGLOBIN / LEUKOCYTE COUNT / LYMPHOCYTE / MEAN CORPUSCULAR HEMOGLOBIN / MEAN CORPUSCULAR HEMOGLOBIN CONCENTRATION / MEAN CORPUSCULAR VOLUME / MONOCYTE / NEUTROPHIL / NUCLEATED RED BLOOD CELLS / PLATELET COUNT / ABSOLUTE BASOPHIL / ABSOLUTE EOSINOPHIL / ABSOLUTE LYMPHOCYTE / ABSOLUTE MONOCYTE: tissue Blood; for ALANINE AMINOTRANSFERASE / ALBUMIN / ALKALINE PHOSPHATASE / ASPARTATE AMINOTRANSFERASE / BLOOD UREA NITROGEN / CARBON DIOXIDE / CHLORIDE / CHOLESTEROL / CREATINE PHOSPHOKINASE / CREATININE / GLUCOSE / LACTATE DEHYDROGENASE / LIPASE / PHOSPHORUS / POTASSIUM / SODIUM / TOTAL BILIRUBIN / TOTAL PROTEIN / URIC ACID: tissue Plasma
[1] = 0 mg/kg, 72 h, dose level Control, time 3 day
[2] = 0 mg/kg, 120 h, dose level Control, time 5 day
[3] = 0 mg/kg, […], dose level Control, time 14 day
[4] = 120 mg/kg, 72 h, dose level High, time 3 day
[5] = 120 mg/kg, 120 h, dose level High, time 5 day

With `COCCc1ccc(OCC(O)CNC(C)C)cc1` (centres undefined) [METOPROLOL] the “ABSOLUTE SEGMENTED NEUTROPHIL” value [1] was 1139.67 CELLS/uL, the BASOPHIL [1] was 1.07% and 0% and the EOSINOPHIL [1] was 1.03% and 0.83%. For the same compound, the “ERYTHROCYTE COUNT” value [1] was 5.88 x10E6/uL and 5.54 x10E6/uL, the HEMATOCRIT [1] was 38.37% and 35.35% and the HEMOGLOBIN [1] was 12.5 G/DL and 13.22 G/DL. The “LEUKOCYTE COUNT” value [1] was 11.61 x10E3/uL and 12 x10E3/uL, the LYMPHOCYTE [1] was 74.4% and 89% and the “MEAN CORPUSCULAR HEMOGLOBIN” value [1] was 21.23 pg and 23.88 pg. The “MEAN CORPUSCULAR HEMOGLOBIN CONCENTRATION” value [1] was 32.5 G/DL and 37.4 G/DL, the “MEAN CORPUSCULAR VOLUME” value [1] was 65.47 fL and 63.85 fL and the MONOCYTE [1] was 2.73% and 1%. The NEUTROPHIL [1] was 20.17% and 9.17%, the “NUCLEATED RED BLOOD CELLS” value [1] was 0 /100WBC and the “PLATELET COUNT” value [1] was 1067 x10E3/uL and 1333.33 x10E3/uL. The “ALANINE AMINOTRANSFERASE” value [1] was 35.33 u/L and 53.17 u/L, the ALBUMIN [1] was 3.83 G/DL and 4.32 G/DL and the “ALKALINE PHOSPHATASE” value [1] was 469.67 u/L and 404.33 u/L. The “ASPARTATE AMINOTRANSFERASE” value [1] was 65.33 u/L and 83.17 u/L, the “BLOOD UREA NITROGEN” value [1] was 16.33 mg/dL and 15.67 mg/dL and the “CARBON DIOXIDE” value [1] was 44.67 mmol/L and 27.33 mmol/L. The CHLORIDE [1] was 102 MEQ/L and 101.83 MEQ/L, the CHOLESTEROL [1] was 71.33 mg/dL and 68.67 mg/dL and the “CREATINE PHOSPHOKINASE” value [1] was 256.67 u/L and 276.17 u/L. For the same compound, the CREATININE [1] was 0.4 mg/dL and 0.18 mg/dL, the GLUCOSE [1] was 165 mg/dL and 163.5 mg/dL and the “LACTATE DEHYDROGENASE” value [1] was 114.33 u/L and 144.67 u/L. For the same compound, the LIPASE [1] was 16 u/L and 8.83 u/L, the PHOSPHORUS [1] was 10.7 mg/dL and 11.72 mg/dL and the POTASSIUM [1] was 6.87 MEQ/L and 5.99 MEQ/L. For the same compound, the SODIUM [1] was 143 MEQ/L and 143.57 MEQ/L, the “TOTAL BILIRUBIN” value [1] was 0.4 mg/dL and 0.2 mg/dL and the “TOTAL PROTEIN” value [1] was 6.37 G/DL and 6.1 G/DL. For the same compound, the “URIC ACID” value [1] was 0.87 mg/dL and 1.38 mg/dL, the “ABSOLUTE SEGMENTED NEUTROPHIL” value [2] was 1137.17 CELLS/uL and the BASOPHIL [2] was 0.57% and 0%. For the same compound, the EOSINOPHIL [2] was 1.33% and 1.67%, the “ERYTHROCYTE COUNT” value [2] was 6.38 x10E6/uL and 5.82 x10E6/uL and the HEMATOCRIT [2] was 42.13% and 36.35%. For the same compound, the HEMOGLOBIN [2] was 13.6 G/DL and 13.58 G/DL, the “LEUKOCYTE COUNT” value [2] was 13.38 x10E3/uL and 14.38 x10E3/uL and the LYMPHOCYTE [2] was 81.03% and 90.5%. For the same compound, the “MEAN CORPUSCULAR HEMOGLOBIN” value [2] was 21.27 pg and 23.32 pg, the “MEAN CORPUSCULAR HEMOGLOBIN CONCENTRATION” value [2] was 32.27 G/DL and 37.42 G/DL and the “MEAN CORPUSCULAR VOLUME” value [2] was 66 fL and 62.42 fL. The MONOCYTE [2] was 2% and 0.17%, the NEUTROPHIL [2] was 14.33% and 7.67% and the “NUCLEATED RED BLOOD CELLS” value [2] was 0 /100WBC. For the same compound, the “PLATELET COUNT” value [2] was 1279.33 x10E3/uL and 1337.67 x10E3/uL, the “ALANINE AMINOTRANSFERASE” value [2] was 29 u/L and 48.5 u/L and the ALBUMIN [2] was 3.8 G/DL and 4.32 G/DL. For the same compound, the “ALKALINE PHOSPHATASE” value [2] was 440.33 u/L and 354.33 u/L, the “ASPARTATE AMINOTRANSFERASE” value [2] was 61.33 u/L and 80 u/L and the “BLOOD UREA NITROGEN” value [2] was 15.67 mg/dL and 16 mg/dL. The “CARBON DIOXIDE” value [2] was 44.67 mmol/L and 27.33 mmol/L, the CHLORIDE [2] was 102 MEQ/L and 100.33 MEQ/L and the CHOLESTEROL [2] was 59.67 mg/dL and 68 mg/dL. For the same compound, the “CREATINE PHOSPHOKINASE” value [2] was 184.33 u/L and 325.17 u/L, the CREATININE [2] was 0.3 mg/dL and 0.23 mg/dL and the GLUCOSE [2] was 180 mg/dL and 172 mg/dL. The “LACTATE DEHYDROGENASE” value [2] was 88.33 u/L and 254.83 u/L, the LIPASE [2] was 8 u/L and 8.33 u/L and the PHOSPHORUS [2] was 10.73 mg/dL and 12.17 mg/dL. The POTASSIUM [2] was 6.5 MEQ/L and 6.28 MEQ/L, the SODIUM [2] was 145.67 MEQ/L and 143.57 MEQ/L and the “TOTAL BILIRUBIN” value [2] was 0.3 mg/dL and 0.18 mg/dL. For the same compound, the “TOTAL PROTEIN” value [2] was 6.3 G/DL and 6.12 G/DL, the “URIC ACID” value [2] was 0.8 mg/dL and 1.78 mg/dL and the ABSOLUTE BASOPHIL [3] was 130 cells/µL. It also gave an ABSOLUTE EOSINOPHIL [3] of 60 cells/µL, an ABSOLUTE LYMPHOCYTE [3] of 9510 cells/µL and an ABSOLUTE MONOCYTE [3] of 270 cells/µL. For the same compound, the BASOPHIL [3] was 0.93%, the EOSINOPHIL [3] was 0.5% and the “ERYTHROCYTE COUNT” value [3] was 7.2 x10E6/uL. For the same compound, the HEMATOCRIT [3] was 43.27%, the HEMOGLOBIN [3] was 14.73 G/DL and the “LEUKOCYTE COUNT” value [3] was 12.58 x10E3/uL. For the same compound, the LYMPHOCYTE [3] was 75.5%, the “MEAN CORPUSCULAR HEMOGLOBIN” value [3] was 20.5 pg and the “MEAN CORPUSCULAR HEMOGLOBIN CONCENTRATION” value [3] was 34.07 G/DL. The “MEAN CORPUSCULAR VOLUME” value [3] was 60.1 fL, the MONOCYTE [3] was 1.33% and the NEUTROPHIL [3] was 20.5%. For the same compound, the “PLATELET COUNT” value [3] was 1162 x10E3/uL, the “ALANINE AMINOTRANSFERASE” value [3] was 25.33 u/L and the ALBUMIN [3] was 3.87 G/DL. For the same compound, the “ALKALINE PHOSPHATASE” value [3] was 321.67 u/L, the “ASPARTATE AMINOTRANSFERASE” value [3] was 60.33 u/L and the “BLOOD UREA NITROGEN” value [3] was 13.33 mg/dL. The “CARBON DIOXIDE” value [3] was 45 mmol/L, the CHLORIDE [3] was 104.67 MEQ/L and the CHOLESTEROL [3] was 72.33 mg/dL. For the same compound, the “CREATINE PHOSPHOKINASE” value [3] was 213.33 u/L, the CREATININE [3] was 0.3 mg/dL and the GLUCOSE [3] was 164 mg/dL. The “LACTATE DEHYDROGENASE” value [3] was 84.33 u/L, the LIPASE [3] was 18.33 u/L and the PHOSPHORUS [3] was 10.23 mg/dL. For the same compound, the POTASSIUM [3] was 6.17 MEQ/L, the SODIUM [3] was 144 MEQ/L and the “TOTAL BILIRUBIN” value [3] was 0.37 mg/dL. The “TOTAL PROTEIN” value [3] was 6.43 G/DL, the “URIC ACID” value [3] was 0.0667 mg/dL and the ABSOLUTE BASOPHIL [4] was 76.7 cells/µL. For the same compound, the ABSOLUTE EOSINOPHIL [4] was 230 cells/µL, the ABSOLUTE LYMPHOCYTE [4] was 5150 cells/µL and the ABSOLUTE MONOCYTE [4] was 220 cells/µL. For the same compound, the BASOPHIL [4] was 1.03%, the EOSINOPHIL [4] was 3.13% and the “ERYTHROCYTE COUNT” value [4] was 6.58 x10E6/uL. For the same compound, the HEMATOCRIT [4] was 42.5%, the HEMOGLOBIN [4] was 14.4 G/DL and the “LEUKOCYTE COUNT” value [4] was 7.41 x10E3/uL. The LYMPHOCYTE [4] was 69.3%, the “MEAN CORPUSCULAR HEMOGLOBIN” value [4] was 21.87 pg and the “MEAN CORPUSCULAR HEMOGLOBIN CONCENTRATION” value [4] was 33.8 G/DL. For the same compound, the “MEAN CORPUSCULAR VOLUME” value [4] was 64.63 fL, the MONOCYTE [4] was 2.97% and the NEUTROPHIL [4] was 23.23%. For the same compound, the “PLATELET COUNT” value [4] was 1007 x10E3/uL, the “ALANINE AMINOTRANSFERASE” value [4] was 35 u/L and the ALBUMIN [4] was 3.7 G/DL. The “ALKALINE PHOSPHATASE” value [4] was 368.67 u/L, the “ASPARTATE AMINOTRANSFERASE” value [4] was 69.33 u/L and the “BLOOD UREA NITROGEN” value [4] was 16.67 mg/dL. The “CARBON DIOXIDE” value [4] was 34.67 mmol/L, the CHLORIDE [4] was 104 MEQ/L and the CHOLESTEROL [4] was 74.33 mg/dL. For the same compound, the “CREATINE PHOSPHOKINASE” value [4] was 338.33 u/L, the CREATININE [4] was 0.47 mg/dL and the GLUCOSE [4] was 161.33 mg/dL. For the same compound, the “LACTATE DEHYDROGENASE” value [4] was 274.33 u/L, the LIPASE [4] was 13 u/L and the PHOSPHORUS [4] was 11.6 mg/dL. The POTASSIUM [4] was 6.57 MEQ/L, the SODIUM [4] was 142.67 MEQ/L and the “TOTAL BILIRUBIN” value [4] was 0.37 mg/dL. For the same compound, the “TOTAL PROTEIN” value [4] was 6.03 G/DL, the “URIC ACID” value [4] was 0.97 mg/dL and the ABSOLUTE BASOPHIL [5] was 66.7 cells/µL. The ABSOLUTE EOSINOPHIL [5] was 380 cells/µL, the ABSOLUTE LYMPHOCYTE [5] was 7010 cells/µL and the ABSOLUTE MONOCYTE [5] was 250 cells/µL.
